Measured values taken from PubChem BioAssay AID2060609 (Molecular Pharmacology Branch, DTP, NCI, 2025).
pIC50: −log10 of the molar value.

System: 855422-203-R-J1-PDC complex spheroids, viability
Assay: Anticancer human tumor 855422-203-R-J1-PDC patient-derived bladder carcinoma cell line growth inhibition [CLK]
Conditions: for pIC50: curve of first compound; for viability, T/C: stronger effect = lower value
In short: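 Multi-cell-type spheroids combined patient-derived tumor cells with HUVEC endothelial cells and human mesenchymal stem cells. Paired agents were dosed in half-log steps down from about clinical Cmax, or from 10 microM where Cmax was unknown.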
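Further: spheroids exposed to drugs for seven days before readout.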
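Wherever viability, T/C is given: 100% = DMSO vehicle control wells.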

## NC(=O)C(=Cn1cnc(-c2cc(C(F)(F)F)cc(C(F)(F)F)c2)n1)c1cncnc1 + CN1CCN(c2cc(C(=O)Nc3cc4cc(-c5cnn(C)c5)ccc4cn3)ccn2)CC1
Second compound 0.0316 µM
  pIC50: 7.15
Second compound 0.1 µM
  pIC50: 7.28
Second compound 0.316 µM
  pIC50: > 8.02
Second compound 1 µM
  pIC50: > 8.02
Second compound 3.16 µM
  pIC50: > 8.02
Second compound 10 µM
  pIC50: > 8.02
Second compound 0.0316 µM, first compound 0.00949 µM
  viability, T/C: 137%
Second compound 0.0316 µM, first compound 0.03 µM
  viability, T/C: 122%
Second compound 0.0316 µM, first compound 0.0949 µM
  viability, T/C: 25.1%
Second compound 0.0316 µM, first compound 0.3 µM
  viability, T/C: 5.66%
Second compound 0.0316 µM, first compound 0.949 µM
  viability, T/C: 6%
Second compound 0.0316 µM, first compound 3 µM
  viability, T/C: 1.88%
Second compound 0.1 µM, first compound 0.00949 µM
  viability, T/C: 82.6%
Second compound 0.1 µM, first compound 0.03 µM
  viability, T/C: 90.1%
Second compound 0.1 µM, first compound 0.0949 µM
  viability, T/C: 11.2%
Second compound 0.1 µM, first compound 0.3 µM
  viability, T/C: 2.07%
Second compound 0.1 µM, first compound 0.949 µM
  viability, T/C: 3.91%
Second compound 0.1 µM, first compound 3 µM
  viability, T/C: 0.25%
Second compound 0.316 µM, first compound 0.00949 µM
  viability, T/C: 2.6%
Second compound 0.316 µM, first compound 0.03 µM
  viability, T/C: 1.37%
Second compound 0.316 µM, first compound 0.0949 µM
  viability, T/C: 1.48%
Second compound 0.316 µM, first compound 0.3 µM
  viability, T/C: 0.21%
Second compound 0.316 µM, first compound 0.949 µM
  viability, T/C: 0.13%
Second compound 0.316 µM, first compound 3 µM
  viability, T/C: 0.05%
Second compound 1 µM, first compound 0.00949 µM
  viability, T/C: 0.15%
Second compound 1 µM, first compound 0.03 µM
  viability, T/C: 0.76%
Second compound 1 µM, first compound 0.0949 µM
  viability, T/C: 0.42%
Second compound 1 µM, first compound 0.3 µM
  viability, T/C: 0.21%
Second compound 1 µM, first compound 0.949 µM
  viability, T/C: 0.71%
Second compound 1 µM, first compound 3 µM
  viability, T/C: 0.05%
Second compound 3.16 µM, first compound 0.00949 µM
  viability, T/C: 0.27%
Second compound 3.16 µM, first compound 0.03 µM
  viability, T/C: 0.21%
Second compound 3.16 µM, first compound 0.0949 µM
  viability, T/C: 0.42%
Second compound 3.16 µM, first compound 0.3 µM
  viability, T/C: 0.13%
Second compound 3.16 µM, first compound 0.949 µM
  viability, T/C: 0.22%
Second compound 3.16 µM, first compound 3 µM
  viability, T/C: 0.09%
Second compound 10 µM, first compound 0.00949 µM
  viability, T/C: 0.14%
Second compound 10 µM, first compound 0.03 µM
  viability, T/C: 0.09%
Second compound 10 µM, first compound 0.0949 µM
  viability, T/C: 0.34%
Second compound 10 µM, first compound 0.3 µM
  viability, T/C: 0.23%
Second compound 10 µM, first compound 0.949 µM
  viability, T/C: 0.6%
Second compound 10 µM, first compound 3 µM
  viability, T/C: 0.2%

## Nc1ccccc1NC(=O)c1ccc(CNC(=O)OCc2cccnc2)cc1 + CN1CCN(c2cc(C(=O)Nc3cc4cc(-c5cnn(C)c5)ccc4cn3)ccn2)CC1
Second compound 0.0316 µM
  pIC50: 6.07
Second compound 0.1 µM
  pIC50: 6.31
Second compound 0.316 µM
  pIC50: > 7.50
Second compound 1 µM
  pIC50: > 7.50
Second compound 3.16 µM
  pIC50: > 7.50
Second compound 10 µM
  pIC50: > 7.50
Second compound 0.0316 µM, first compound 0.0316 µM
  viability, T/C: 87%
Second compound 0.0316 µM, first compound 0.1 µM
  viability, T/C: 72.8%
Second compound 0.0316 µM, first compound 0.316 µM
  viability, T/C: 68.8%
Second compound 0.0316 µM, first compound 1 µM
  viability, T/C: 49%
Second compound 0.0316 µM, first compound 3.16 µM
  viability, T/C: 19.2%
Second compound 0.0316 µM, first compound 10 µM
  viability, T/C: 0.56%
Second compound 0.1 µM, first compound 0.0316 µM
  viability, T/C: 65.2%
Second compound 0.1 µM, first compound 0.1 µM
  viability, T/C: 75.4%
Second compound 0.1 µM, first compound 0.316 µM
  viability, T/C: 58.4%
Second compound 0.1 µM, first compound 1 µM
  viability, T/C: 33%
Second compound 0.1 µM, first compound 3.16 µM
  viability, T/C: 10.7%
Second compound 0.1 µM, first compound 10 µM
  viability, T/C: 0.05%
Second compound 0.316 µM, first compound 0.0316 µM
  viability, T/C: 5.43%
Second compound 0.316 µM, first compound 0.1 µM
  viability, T/C: 5.82%
Second compound 0.316 µM, first compound 0.316 µM
  viability, T/C: 9.34%
Second compound 0.316 µM, first compound 1 µM
  viability, T/C: 3.91%
Second compound 0.316 µM, first compound 3.16 µM
  viability, T/C: 0.28%
Second compound 0.316 µM, first compound 10 µM
  viability, T/C: 0.06%
Second compound 1 µM, first compound 0.0316 µM
  viability, T/C: 0.15%
Second compound 1 µM, first compound 0.1 µM
  viability, T/C: 0.19%
Second compound 1 µM, first compound 0.316 µM
  viability, T/C: 0.13%
Second compound 1 µM, first compound 1 µM
  viability, T/C: 0.09%
Second compound 1 µM, first compound 3.16 µM
  viability, T/C: 0.12%
Second compound 1 µM, first compound 10 µM
  viability, T/C: 0.09%
Second compound 3.16 µM, first compound 0.0316 µM
  viability, T/C: 0.53%
Second compound 3.16 µM, first compound 0.1 µM
  viability, T/C: 1.31%
Second compound 3.16 µM, first compound 0.316 µM
  viability, T/C: 0.28%
Second compound 3.16 µM, first compound 1 µM
  viability, T/C: 0.49%
Second compound 3.16 µM, first compound 3.16 µM
  viability, T/C: 0.96%
Second compound 3.16 µM, first compound 10 µM
  viability, T/C: 0.28%
Second compound 10 µM, first compound 0.0316 µM
  viability, T/C: 0.2%
Second compound 10 µM, first compound 0.1 µM
  viability, T/C: 0.34%
Second compound 10 µM, first compound 0.316 µM
  viability, T/C: 0.42%
Second compound 10 µM, first compound 1 µM
  viability, T/C: 0.36%
Second compound 10 µM, first compound 3.16 µM
  viability, T/C: 0.31%
Second compound 10 µM, first compound 10 µM
  viability, T/C: 0.24%
